From PubChem BioAssay AID274 (DTP/NCI, 2004)
Values joined by “and” are separate entries in the source; they are usually repeats but may differ in a detail not shown here. Equal entries are not always repeated. Inconclusive results and toxic doses are left out. How the source made its calls: active means survival T/C of 150% or more; inactive means T/C below 125% in these data.

Tested on: BDF1 mice, Lewis lung carcinoma iv, survival T/C
Assay: NCI In Vivo Anticancer Drug Screen. Data for tumor model Lewis Lung Carcinoma (intravenous) in B6D2F1 (BDF1) mice
Settings: endpoint: median survival time, higher = longer survival
Method: The antitumor activity of compounds was measured in mice bearing transplantable tumors. Survival or tumor size were measured and the results are expressed as the measurement made in the treated group (T) divided by the measurement made in the vehicle treated control group (C). The tumor model used in this assay is Lewis Lung Carcinoma (intravenous) in B6D2F1 (BDF1) mice

[1] = dose: 3.12 mg/kg/injection, schedule: Q01DX009 (ip), vehicle: Klucel (hydroxypropylcellulose) (HPC)
[2] = dose: 6.25 mg/kg/injection, schedule: Q01DX009 (ip), vehicle: Klucel (hydroxypropylcellulose) (HPC)
[3] = dose: 12.5 mg/kg/injection, schedule: Q01DX009 (ip), vehicle: Klucel (hydroxypropylcellulose) (HPC)
[4] = dose: 25.0 mg/kg/injection, schedule: Q01DX009 (ip), vehicle: Klucel (hydroxypropylcellulose) (HPC)
[5] = dose: 50.0 mg/kg/injection, schedule: Q01DX009 (ip), vehicle: Klucel (hydroxypropylcellulose) (HPC)
[6] = dose: 100.0 mg/kg/injection, schedule: Q01DX009 (ip), vehicle: Klucel (hydroxypropylcellulose) (HPC)
[7] = dose: 25.0 mg/kg/injection, schedule: Q01DX009 (ip), vehicle: saline with Tween-80
[8] = dose: 50.0 mg/kg/injection, schedule: Q01DX009 (ip), vehicle: saline with Tween-80
[9] = dose: 100.0 mg/kg/injection, schedule: Q01DX009 (ip), vehicle: saline with Tween-80
[10] = dose: 200.0 mg/kg/injection, schedule: Q01DX009 (ip), vehicle: saline with Tween-80
[11] = dose: 100.0 mg/kg/injection, schedule: Q01DX009 (ip), vehicle: saline
[12] = dose: 6.25 mg/kg/injection, schedule: Q01DX009 (ip), vehicle: saline
[13] = dose: 12.5 mg/kg/injection, schedule: Q01DX009 (ip), vehicle: saline
[14] = dose: 25.0 mg/kg/injection, schedule: Q01DX009 (ip), vehicle: saline
[15] = dose: 50.0 mg/kg/injection, schedule: Q01DX009 (ip), vehicle: saline
[16] = dose: 12.5 mg/kg/injection, schedule: Q01DX009 (ip), vehicle: saline with Tween-80
[17] = dose: 6.25 mg/kg/injection, schedule: Q01DX009 (ip), vehicle: saline with Tween-80

Measured: T/C

CCc1c(CC(=O)O)c2cc(C)ccc2n1Cc1ccc(Cl)cc1
inactive: [1] 110 % of control | dose: 3.13 mg/kg/injection, schedule: Q01DX009 (ip), vehicle: Klucel (hydroxypropylcellulose) (HPC) 119 % of control | [2] 105 % of control and 108 % of control | [3] 100 % of control and 117 % of control | [4] 91 % of control and 99 % of control | [5] 95 % of control and 119 % of control | [6] 112 % of control and 88 % of control

C(COCCOCC1CO1)OCCOCC1CO1 (centres undefined)
inactive: [7] 107 % of control | [8] 104 % of control | [9] 98 % of control | [10] 112 % of control

CN1C(=O)NC(c2ccc(Cl)cc2)(c2ccc(Cl)cc2)C1=O
inactive: dose: 12.5 mg/kg/injection, schedule: Q01DX009 (ip), vehicle: distilled water + Tween-80 102 % of control | dose: 25.0 mg/kg/injection, schedule: Q01DX009 (ip), vehicle: distilled water + Tween-80 124 % of control | dose: 50.0 mg/kg/injection, schedule: Q01DX009 (ip), vehicle: distilled water + Tween-80 116 % of control | dose: 200.0 mg/kg/injection, schedule: Q01DX009 (ip), vehicle: distilled water + Tween-80 105 % of control

CN(C)CC(=O)c1ccc(O)c(O)c1
inactive: [11] 99 % of control | dose: 200.0 mg/kg/injection, schedule: Q01DX009 (ip), vehicle: saline 91 % of control | dose: 400.0 mg/kg/injection, schedule: Q01DX009 (ip), vehicle: saline 90 % of control

COc1ccc2c(c1)/C(=C/CCN(C)C)c1ccccc1S2
inactive: [12] 114 % of control | [13] 98 % of control and 105 % of control | [14] 106 % of control and 110 % of control

CCN(CC)CCOC(=O)Cc1cccc2c(=O)cc(-c3ccccc3)oc12
inactive: [13] 109 % of control | [14] 105 % of control | [15] 105 % of control | [11] 101 % of control

Nc1nc(N)c(N=O)c(Nc2ccc(I)cc2)n1
inactive: [8] 97 % of control | [9] 95 % of control | [10] 95 % of control

O=c1[nH]c(=O)n(C2CC(O)C(CO)O2)cc1I (centres undefined)
inactive: [9] 99 % of control | [10] 108 % of control

C=C(Cl)C(=NC(C)(C)C)Nc1ccccc1C
inactive: [1] 100 % of control | [2] 110 % of control | [3] 107 % of control | [4] 108 % of control

COC1NC(=O)NC(=O)C1=[N+]=[N-] (centres undefined)
inactive: dose: 2.0 mg/kg/injection, schedule: Q01DX009 (ip), vehicle: water 96 % of control | dose: 4.0 mg/kg/injection, schedule: Q01DX009 (ip), vehicle: water 98 % of control | dose: 8.0 mg/kg/injection, schedule: Q01DX009 (ip), vehicle: water 100 % of control

CC(=O)Nc1ccc(Nc2ccc(C(=C3C=CC(=[N+](C)CCC#N)C=C3)c3ccc(N(C)CCC#N)cc3)cc2)cc1
inactive: [16] 101 % of control | [7] 110 % of control

Clc1ccc2nnnn2n1
inactive: [16] 102 % of control | [7] 115 % of control | [8] 104 % of control | [9] 98 % of control | [10] 108 % of control

Cc1cc2cc3cc(C)c(N)cc3nc2cc1N
inactive: dose: 3.12 mg/kg/injection, schedule: Q01DX009 (ip), vehicle: saline with Tween-80 102 % of control | [17] 104 % of control | [16] 100 % of control | [7] 105 % of control

CC[C@]1(O)C[C@H]2CN(CCc3c([nH]c4ccccc34)[C@@](C(=O)OC)(c3cc4c(cc3OC)N(C=O)[C@H]3[C@@](O)(C(=O)OC)[C@H](OC(C)=O)[C@]5(CC)C=CCN6CC[C@]43[C@@H]65)C2)C1
inactive: dose: 0.36 mg/kg/injection, schedule: Q04DX003 (ip), vehicle: saline 98 % of control | dose: 0.6 mg/kg/injection, schedule: Q04DX003 (ip), vehicle: saline 105 % of control | dose: 1.0 mg/kg/injection, schedule: Q04DX003 (ip), vehicle: saline 120 % of control | dose: 130.0 micrograms/kg/injection, schedule: Q01DX009 (ip), vehicle: saline 106 % of control | dose: 216.0 micrograms/kg/injection, schedule: Q01DX009 (ip), vehicle: saline 111 % of control

CC[C@](C)(O)C(=O)O[C@H]1C(=O)O[C@@H]2C[C@H]3C(C)=CC(=O)[C@@H](O)[C@]3(C)[C@H]3[C@@]4(O)OC[C@]32[C@@H]1[C@@H](C)[C@H]4O
inactive: dose: 0.12 mg/kg/injection, schedule: Q01DX009 (ip), vehicle: steriod suspending solution 92 % of control | dose: 0.25 mg/kg/injection, schedule: Q01DX009 (ip), vehicle: steriod suspending solution 106 % of control | dose: 0.5 mg/kg/injection, schedule: Q01DX009 (ip), vehicle: steriod suspending solution 99 % of control

N=c1ccn2c(n1)OC1C(O)C(CO)OC12 (centres undefined)
inactive: [14] 104 % of control | dose: 37.5 mg/kg/injection, schedule: Q01DX009 (ip), vehicle: saline 108 % of control | dose: 75.0 mg/kg/injection, schedule: Q01DX009 (ip), vehicle: saline 106 % of control | [11] 112 % of control | dose: 150.0 mg/kg/injection, schedule: Q01DX009 (ip), vehicle: saline 119 % of control | dose: 300.0 mg/kg/injection, schedule: Q01DX009 (ip), vehicle: saline 104 % of control | dose: 600.0 mg/kg/injection, schedule: Q01DX009 (ip), vehicle: saline 92 % of control

O=S(=O)(c1ccc(NC(C(O)C(O)C(O)C(O)CO)S(=O)(=O)O)cc1)c1ccc(NC(C(O)C(O)C(O)C(O)CO)S(=O)(=O)O)cc1 (centres undefined)
inactive: dose: 72.0 mg/kg/injection, schedule: Q01DX007 (ip), vehicle: saline 90 % of control | dose: 102.9 mg/kg/injection, schedule: Q01DX007 (ip), vehicle: saline 95 % of control | dose: 147.0 mg/kg/injection, schedule: Q01DX007 (ip), vehicle: saline 86 % of control | dose: 210.0 mg/kg/injection, schedule: Q01DX007 (ip), vehicle: saline 96 % of control | dose: 300.0 mg/kg/injection, schedule: Q01DX007 (ip), vehicle: saline 94 % of control

O=C1C=CC(n2cc(F)c(=O)[nH]c2=O)O1 (centres undefined)
inactive: [12] 106 % of control | [13] 96 % of control | [14] 103 % of control | [15] 119 % of control

CC1=C(/C=C/C(C)=C/C=C/C(C)=C/C=O)C(C)(C)CCC1
inactive: dose: 4.0 mg/kg/injection, schedule: Q01DX005 (ip), vehicle: saline with Tween-80 96 % of control | dose: 8.0 mg/kg/injection, schedule: Q01DX005 (ip), vehicle: saline with Tween-80 96 % of control and 109 % of control | dose: 16.0 mg/kg/injection, schedule: Q01DX005 (ip), vehicle: saline with Tween-80 95 % of control and 116 % of control | dose: 32.0 mg/kg/injection, schedule: Q01DX005 (ip), vehicle: saline with Tween-80 108 % of control | dose: 64.0 mg/kg/injection, schedule: Q01DX005 (ip), vehicle: saline with Tween-80 95 % of control and 96 % of control

O=c1oc2c(O)c(O)cc3c(=O)oc4c(O)c(O)cc1c4c23
inactive: [3] 102 % of control | [4] 112 % of control | [5] 116 % of control | [6] 111 % of control | dose: 400.0 mg/kg/injection, schedule: Q01DX009 (ip), vehicle: Klucel (hydroxypropylcellulose) (HPC) 121 % of control

Cc1cc(/C=C/c2cc[n+](C)c3ccccc23)c(O)c2ncccc12
inactive: [17] 95 % of control | [16] 109 % of control
